From patent EP0908457B1, “3-(1,2-benzisothiazol- and isoxazol-5-Y1)-2,4(1H,3H)-pyrimidinedione or thione and 3-(1,2-benzisothiazol- and isoxazol-5-y1)-4(3H)-pyrimidinone or thione herbicidal agents” (BASF AKTIENGESELLSCHAFT, priority 1997, dated 1999)

Columns and labels:
[1] = tested on: Echinochloa oryzoides (Ard.) Fritsch.; assay: Preemergence weed control under flooded paddy conditions, ECHORC (Watergrass (Calif.)); type: in vivo; conditions: flooded paddy; for ECHORC: preemergence weeds, herbicidal effect rating 0-9, three to four weeks after treatment; for herbicidal effect rating, ECHORC: rated 3-4 weeks after treatment
Cyperus iria = assay: Preemergence weed control under flooded paddy conditions, CYPIR (Rice Flatsedge); type: in vivo; conditions: flooded paddy; for CYPIR: preemergence weeds, herbicidal effect rating 0-9, three to four weeks after treatment; for herbicidal effect rating, CYPIR: rated 3-4 weeks after treatment
[2] = tested on: Cyperus serotinus, Rottb.; assay: Preemergence weed control under flooded paddy conditions, CYPSE (Flatsedge); type: in vivo; conditions: for CYPSE: preemergence weeds, herbicidal effect rating 0-9, three to four weeks after treatment; for herbicidal effect rating, CYPSE: rated 3-4 weeks after treatment
[3] = tested on: Monochoria vaginalis, Presl.; assay: Preemergence weed control under flooded paddy conditions, MOOVA (Monochoria); type: in vivo; conditions: flooded paddy; for MOOVA: preemergence weeds, herbicidal effect rating 0-9, three to four weeks after treatment; for herbicidal effect rating, MOOVA: rated 3-4 weeks after treatment
Sagittaria pygmaea, L. = assay: Preemergence weed control under flooded paddy conditions, SAGPY (Arrowhead (Pygmaea)); type: in vivo; conditions: flooded paddy; for SAGPY: preemergence weeds, herbicidal effect rating 0-9, three to four weeks after treatment; for herbicidal effect rating, SAGPY: rated 3-4 weeks after treatment
[4] = tested on: Oryza sativa, (L.) Tebonnet; assay: Rice tolerance to post-transplant applications under flooded paddy conditions (Example 187), ORYSAT (Rice, Tebonnet); conditions: for ORYSAT: herbicidal effect rating 0-9, three to four weeks after treatment; for herbicidal effect rating ORYSAT: rated 3-4 weeks after treatment; on herbicidal effect rating ORYSAT: meaning of each grade not given here
[5] = Rate 0.0313 kg/ha, preemergence, rated three to four weeks after treatment
[6] = Rate 0.0625 kg/ha, preemergence, rated three to four weeks after treatment
[7] = Rate 0.1250 kg/ha, preemergence, rated three to four weeks after treatment
[8] = Rate 0.2500 kg/ha, preemergence, rated three to four weeks after treatment
[9] = 0.0320 kg/ha, preemergence, rated three to four weeks after treatment
[10] = Rate 0.0320 kg/ha, preemergence
[11] = Rate 0.0620 kg/ha, preemergence
[12] = Rate 0.1250 kg/ha, preemergence
[13] = Rate 0.2500 kg/ha, preemergence

Q: Which results are given for `CCOc1nc(C(F)(F)F)cc(=O)n1-c1ccc2snc(-c3cc(C)ccc3OCC(=O)OC)c2c1` [Example 246, Methyl {{2-{5-[2-ethoxy-6-oxo-4-(trifluoromethyl)-1(6H)-pyrimidinyl]-1,2-benzisothiazol-3-yl}-p-tolyl}oxy}acetate]?
A: ECHORC herbicidal effect rating [1, 5]: 6.0; ECHORC herbicidal effect rating [1, 6]: 7.0; ECHORC herbicidal effect rating [1, 7]: 9.0; ECHORC herbicidal effect rating [1, 8]: 9.0; CYPIR herbicidal effect rating (Cyperus iria; [5]): 0.0; CYPIR herbicidal effect rating (Cyperus iria; [6]): 2.0; CYPIR herbicidal effect rating (Cyperus iria; [7]): 4.0; CYPIR herbicidal effect rating (Cyperus iria; [8]): 4.0; CYPSE herbicidal effect rating [2, 5]: 0.0; CYPSE herbicidal effect rating [2, 6]: 0.0; CYPSE herbicidal effect rating [2, 7]: 0.0; MOOVA herbicidal effect rating [3, 5]: 9.0; MOOVA herbicidal effect rating [3, 6]: 9.0; MOOVA herbicidal effect rating [3, 7]: 9.0; MOOVA herbicidal effect rating [3, 8]: 9.0; SAGPY herbicidal effect rating (Sagittaria pygmaea, L.; [5]): 0.0; SAGPY herbicidal effect rating (Sagittaria pygmaea, L.; [6]): 0.0; SAGPY herbicidal effect rating (Sagittaria pygmaea, L.; [7]): 2.0; SAGPY herbicidal effect rating (Sagittaria pygmaea, L.; [8]): 2.0; ORYSAT herbicidal effect rating ([4]; Rate 0.0313 kg/ha, rated three to four weeks after treatment): 0.0; ORYSAT herbicidal effect rating ([4]; Rate 0.0625 kg/ha, rated three to four weeks after treatment): 1.0; ORYSAT herbicidal effect rating ([4]; Rate 0.1250 kg/ha, rated three to four weeks after treatment): 2.0; ORYSAT herbicidal effect rating ([4]; Rate 0.2500 kg/ha, rated three to four weeks after treatment): 2.0

Q: For `COC(=O)COc1ccc(I)cc1-c1nsc2ccc(-n3c(=O)cc(C(F)(F)F)n(C)c3=O)cc12` [Example 459, Acetic acid, {2-{5-[3,6-dihydro-3-methyl-2,6-dioxo-4-(trifluoromethyl)-1(2H)-pyrimidinyl]-1,2-benzisothiazol-3-yl}-4-iodophenoxy}-, methyl ester], which ECHORC herbicidal rating [1, 9] is on record?
A: 7.0

Q: And the ECHORC ([1]; 0.0620 kg/ha)?
A: 7.0

Q: And the ECHORC ([1]; 0.1250 kg/ha)?
A: 9.0

Q: What about the ECHORC ([1]; 0.2500 kg/ha) of the same molecule?
A: 9.0

Q: What about the CYPIR herbicidal rating (Cyperus iria; [9]) of the same molecule?
A: 0.0

Q: What about the CYPIR (Cyperus iria; 0.0620 kg/ha) of the same molecule?
A: 2.0

Q: And the CYPIR (Cyperus iria; 0.1250 kg/ha)?
A: 4.0

Q: And the CYPIR (Cyperus iria; 0.2500 kg/ha)?
A: 4.0

Q: What about the CYPSE herbicidal rating [2, 9] of the same molecule?
A: 0.0

Q: And the CYPSE ([2]; 0.0620 kg/ha)?
A: 0.0

Q: And the CYPSE ([2]; 0.1250 kg/ha)?
A: 0.0

Q: And the CYPSE ([2]; 0.2500 kg/ha)?
A: 3.0

Q: And the MOOVA herbicidal rating [3, 9]?
A: 3.0

Q: What about the MOOVA ([3]; 0.0620 kg/ha) of the same molecule?
A: 5.0

Q: What about the MOOVA ([3]; 0.1250 kg/ha) of the same molecule?
A: 7.0

Q: What about the MOOVA ([3]; 0.2500 kg/ha) of the same molecule?
A: 7.0

Q: What about the SAGPY herbicidal rating (Sagittaria pygmaea, L.; [9]) of the same molecule?
A: 0.0

Q: And the SAGPY (Sagittaria pygmaea, L.; 0.0620 kg/ha)?
A: 0.0

Q: And the SAGPY (Sagittaria pygmaea, L.; 0.1250 kg/ha)?
A: 0.0

Q: What about the SAGPY (Sagittaria pygmaea, L.; 0.2500 kg/ha) of the same molecule?
A: 0.0

Q: And the “ORYSAT herbicidal rating (rice tolerance)” value ([4]; 0.0320 kg/ha, rated three to four weeks after treatment)?
A: 2.0

Q: What about the ORYSAT ([4]; 0.0620 kg/ha) of the same molecule?
A: 4.0

Q: What about the ORYSAT ([4]; 0.1250 kg/ha) of the same molecule?
A: 5.0

Q: What about the ORYSAT ([4]; 0.2500 kg/ha) of the same molecule?
A: 5.0

Q: With `Cn1c(C(F)(F)F)cc(=O)n(-c2ccc3snc(/C=C/C(=O)c4ccccc4)c3c2)c1=O` [Example 564, 2,4(1H,3H)-Pyrimidinedione, 1-methyl-3-[3-(3-oxo-3-phenylpropenyl)-1,2-benzisothiazol-5-yl]-6-(trifluoromethyl)-, (E)-] as the molecule, how does the “herbicidal effect rating, ECHORC” value [1, 10] read?
A: 4.0

Q: What about the “herbicidal effect rating, ECHORC” value [1, 11] of the same molecule?
A: 4.0

Q: What about the “herbicidal effect rating, ECHORC” value [1, 12] of the same molecule?
A: 5.0

Q: What about the “herbicidal effect rating, ECHORC” value [1, 13] of the same molecule?
A: 7.0

Q: What about the “herbicidal effect rating, CYPIR” value (Cyperus iria; [10]) of the same molecule?
A: 6.0

Q: What about the “herbicidal effect rating, CYPIR” value (Cyperus iria; [11]) of the same molecule?
A: 6.0

Q: And the “herbicidal effect rating, CYPIR” value (Cyperus iria; [12])?
A: 7.0

Q: What about the “herbicidal effect rating, CYPIR” value (Cyperus iria; [13]) of the same molecule?
A: 9.0

Q: And the “herbicidal effect rating, CYPSE” value [2, 10]?
A: 0.0

Q: What about the “herbicidal effect rating, CYPSE” value [2, 11] of the same molecule?
A: 0.0

Q: What about the “herbicidal effect rating, CYPSE” value [2, 12] of the same molecule?
A: 0.0

Q: What about the “herbicidal effect rating, CYPSE” value [2, 13] of the same molecule?
A: 4.0

Q: And the “herbicidal effect rating, MOOVA” value [3, 10]?
A: 9.0

Q: And the “herbicidal effect rating, MOOVA” value [3, 11]?
A: 9.0

Q: What about the “herbicidal effect rating, MOOVA” value [3, 12] of the same molecule?
A: 9.0

Q: What about the “herbicidal effect rating, MOOVA” value [3, 13] of the same molecule?
A: 9.0

Q: And the “herbicidal effect rating, SAGPY” value (Sagittaria pygmaea, L.; [10])?
A: 0.0

Q: And the “herbicidal effect rating, SAGPY” value (Sagittaria pygmaea, L.; [11])?
A: 0.0

Q: What about the “herbicidal effect rating, SAGPY” value (Sagittaria pygmaea, L.; [12]) of the same molecule?
A: 0.0

Q: What about the “herbicidal effect rating, SAGPY” value (Sagittaria pygmaea, L.; [13]) of the same molecule?
A: 0.0

Q: And the “herbicidal effect rating ORYSAT” value ([4]; Rate 0.0320 kg/ha)?
A: 0.0

Q: What about the “herbicidal effect rating ORYSAT” value ([4]; Rate 0.0620 kg/ha) of the same molecule?
A: 0.0

Q: And the “herbicidal effect rating ORYSAT” value ([4]; Rate 0.1250 kg/ha)?
A: 0.0

Q: What about the “herbicidal effect rating ORYSAT” value ([4]; Rate 0.2500 kg/ha) of the same molecule?
A: 0.0
